Read-outs that look alike come from different tables or passages of the source.
Columns and labels:
[1] = system: MCF-7 (ER+, Her2−) human breast cancer cells; test: MTT cell viability assay, MCF-7 cells; format: cell-based
Outline: (§1)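 Cells (2×10^3 to 1×10^4 cells/well) were seeded overnight, then exposed to compounds for 24 h to 72 h. Growth was measured by MTT colorimetric assay, with viability calculated as OD570 of treated over vehicle (0.5% DMSO) control ×100.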

[2] = system: KATO III stomach cancer cell line; test: MTT cell viability assay, KATO III; format: cell-based; conditions: Homo sapiens, 24 h
Experimental: (§2) Normal or cancer cells (2×10^3 to 1×10^4 cells/well) were seeded in 96-well plate for overnight and treated with different compounds for 24 h to 72 h. Cells growth were determined by MTT-based colorimetric assays according to. Viability of the test cells treated with vehicle (0.5% DMSO) only was defined as 100% viable. Survival of cells after treatment with DETDs was calculated using the following formula: viable cell number (%)=OD570 (treated cell culture)/OD570 (vehicle control)×100.
(§3) Based on toxicity results of DET and DETDs on different breast cancer and melanoma cell lines, we selected DETD-6, -32, -35 and -39, under the consideration of structure activity relationship for evaluating their suppression effect against other cancer types of cell line with indicated tumor origin in Table 5. […] The cells were treated with compounds for 24 h and then subjected to MTT assays.

[3] = system: TS/A (ER+, Her2−) murine mammary cancer cells; test: MTT cell viability assay, TS/A cells; format: cell-based; conditions: Mus musculus
Outline: as §1

[4] = system: A375 human melanoma tumor; test: A375 melanoma xenograft model in NOD/SCID mice; format: in vivo, mouse; conditions: 20 mg/kg i.p.; PLX4032 every day, DET and DETD-35 every two days
Experimental: A375 and A375-R melanoma cells (3×10^6) were injected subcutaneously to the flanks of the six weeks old NOD/SCID mice. One week after the inoculation, the mice were randomized into treated groups (n=8 per group) and the treatments were started. Body weight and tumor volume of the mice were recorded every three days using formula a×b^2×0.5, where a and b represented the larger and smaller tumor diameters.
We used A375 human melanoma xenograft model to evaluate the in vivo bioefficacy of DET. DETD-35, PLX4032 and compound drug combination. […] For single compound or drug treatment group, PLX4032 was administered i.p. every day and DET and DETD-35 were administered i.p. every two days. For combination treatment, PLX4032 was administered every two days while DET and DETD-35 were administered every four days. […] Compound-drug combinational treatments were carried out with alternative administration of DET (20 mg/kg) or DETD-35 (20 mg/kg) and PLX4032 (20 mg/kg) by which DET or DETD-35 and PLX4032 treatment frequency were only half of the single compound or drug administration alone.

[5] = system: SK-N-MC neuroepithelioma line; test: MTT cell viability assay, SK-N-MC; format: cell-based; conditions: Homo sapiens, 24 h
Experimental: as §2, §3

[6] = system: MDA-MB-231 (ER−, PR−, Her2−) human breast cancer cells; test: MTT cell viability assay, MDA-MB-231 cells; format: cell-based; conditions: for IC50: Homo sapiens
Outline: as §1

[7] = system: MDA-MB-231 cell invasion; test: Boyden chamber (Matrigel) invasion assay; format: cell-based, human; conditions: 24 h
Experimental: (§4) To test the anti-migratory and anti-invasive effect of DET. DETD-35 and PTX. Boyden chambers assay was carried out. The lower well of the chamber (6.5 mm diameter, […]; Costar. Cambridge, Mass., USA) was added 10% fetal bovine serum (FBS) as a chemoattractant and filled with DMEM culture medium containing vehicle (DMSO, 0.05%), DET (2.5 and 4 μM). DETD-35 (1.25 and 2.5 μM), or PTX (2.5 and 4 μM). MDA-MB-231 cells were placed into the upper chamber (5×10^4 cells per insert) with the medium containing 0.1% FBS. After 24 h incubation at 37° C. in a 5% CO2 atmosphere, non-migrating cells were scraped from the upper surface of the membrane using a cotton swab, and the migrated cells remaining in the well were fixed and stained with DAPI solution (4,6-diamidino-2-phenylindole, 1 μg/ml). The migrating cells were counted in three fields at 20× original magnifications by inverted fluorescence microscopy. To test the anti-invasive effect of the compounds, 8-μm filters were pre-coating with Matrigel (30 μg per filter) and incubated at 37° C. for 2 h, then followed the protocol of migration assay descried about.

[8] = system: HCT-116 colon cancer cell line; test: MTT cell viability assay, HCT-116; format: cell-based; conditions: Homo sapiens, 24 h
Experimental: as §2, §3

[9] = system: MDA-MB-231 cell migration; test: Boyden chamber migration assay; format: cell-based, human; conditions: 24 h; for reduction of cell migration vs vehicle control: higher concentrations (DET 4 μM, DETD-35 2.5 μM, PTX 4 μM); for suppression of cell migration vs vehicle control: lower concentrations (DET 2.5 μM, DETD-35 1.25 μM, PTX 2.5 μM)
Experimental: as §4

[10] = system: MeWo (No NRAS or BRAF mutation); test: MTT cell viability assay, MeWo melanoma; format: cell-based, human; conditions: 24 h
Outline: (§5)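 Cells seeded at 2×10^3 to 1×10^4 cells/well overnight, then exposed to compounds for 24 h to 72 h. Growth measured by MTT colorimetric assay; viability expressed as OD570 treated/OD570 vehicle (0.5% DMSO) ×100.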

[11] = system: MDA-MB-231 cell motility; test: Time-lapse microscope analysis of cell motility; format: cell-based, human; conditions: 12 h, control 186
Experimental: A 12 well cell culture plate was coated with 25 μg/mL fibronectin for 1 h and then seeded with 5×10^4 MDA-MB-231 cells in DMEM containing 10% serum. Twelve hours after seeding, time-lapse microscopy experiments were performed on an Inverted Confocal Microscope (LSM 510 META) equipped with an environmental chamber with phase-contrast optics (images taken every 30 min). Using the object-tracking application of Metamorph software (Molecular Devices), an average of 12 subsequent cell centroid displacements/30 min between two consecutive images were evaluated as cell velocities of migration. In total, cell trajectories were recorded for 24 h. These assays were made in treatments with vehicle (DMSO, 0.05%), DET (2.5, 4 and 10 μM), and DETD-35 (1.25, 2.5, 4 μM) added at the beginning of the time-lapse imaging/video taping.

[12] = system: HTB-68 (NRAS mutation); test: MTT cell viability assay, HTB-68 melanoma; format: cell-based, human; conditions: 24 h
Outline: as §5

[13] = system: U-87MG brain cancer cell line; test: MTT cell viability assay, U-87MG; format: cell-based; conditions: Homo sapiens, 24 h
Experimental: as §2, §3

[14] = MCF7, 24 h, read-out: IC50 on cell viability, MCF-7 (ER+, Her2−)
[15] = MCF7, Table 5, 24 h, read-out: IC50 viability MCF-7 (Breast)
[16] = 24 h, read-out: IC50 on cell viability, TS/A (ER+, Her2−)
[17] = Table 5, 24 h, read-out: IC50 viability TS/A (mouse) (Breast)
[18] = MDA-MB-231, 24 h, read-out: IC50 on cell viability, MDA-MB-231 (ER−, PR−, Her2−)
[19] = MDA-MB-231, Table 5, 24 h, read-out: IC50 viability MDA-MB-231 (Breast)

SMILES | IC50 [1, 14] [µM] | IC50 [1, 15] [µM] | IC50 [2] [µM] | IC50 [3, 16] [µM] | IC50 [3, 17] [µM] | reduction of tumor mass vs tumor control [4] [%] | IC50 [5] [µM] | IC50 [6, 18] [µM] | IC50 [6, 19] [µM] | IC50 [8] [µM] | reduction of cell migration vs vehicle control [9] [%] | suppression of cell migration vs vehicle control [9] [%] | IC50 ([10]; Homo sapiens, MeWo) [µM] | migration distance ([11]; 2.5 μM) [μm] | migration distance ([11]; 4 μM) [μm] | IC50 ([12]; Homo sapiens) [µM] | IC50 [13] [µM] | other results
C=C1C(=O)O[C@H]2CC3=C[C@@H](C/C(C)=C/[C@@H](OC(=O)Cc4cccc5ccccc45)[C@H]12)OC3=O [DETD-35] | 3.2 | 3.9 | 0.65 | 1.7 | 1.7 | 70.5 | 0.26 | 3.5 | 3.5 | 0.14 | 84 | 10 | 6 | 23 | 3 | 3.9 | 0.34 | IC60 on MDA-MB-231 cells ([6]; 24 h): 3.32 µM; inhibition at 2.5 µM ([7]; Homo sapiens, MDA-MB-231, higher concentrations (DET 4 μM, DETD-35 2.5 μM, PTX 4 μM)): 80%; inhibition at 1.25 µM ([7]; Homo sapiens, MDA-MB-231, lower concentrations (DET 2.5 μM, DETD-35 1.25 μM, PTX 2.5 μM)): 64.6%; migration distance ([11]; 1.25 μM): 70 μm
C=C(C)C(=O)O[C@H]1CC2=C[C@@H](C/C(C)=C/[C@H]3OC(=O)C(=C)[C@H]13)OC2=O [DET, deoxyelephantopin, reference compound] | 5 | 5 | 1.47 | 2.3 | 2.6 | 47.5 | 0.51 | 14 | 14 | 0.28 | 77 | 16 | > 10 | 144 | 15 | > 10 | 1 | inhibition of cell invasion ([7]; higher concentrations (DET 4 μM, DETD-35 2.5 μM, PTX 4 μM)): 76%; inhibition of cell invasion ([7]; lower concentrations (DET 2.5 μM, DETD-35 1.25 μM, PTX 2.5 μM)): 57%; IC50 [10]: > 10 µM; migration distance ([11]; 10 μM): 9 μm; IC50 [12]: > 10 µM

— patent US10238631B2, “Sesquiterpene derivatives and their use in inflammation or cancer treatment” (Academia Sinica, priority 2014, dated 2019)
